Results: patent US20180031513A1, “CELL CHIP-BASED QUANTITATIVE ANALYSIS OF UNDIFFERENTIATED HUMAN PLURIPOTENT STEM CELL” (SOGANG UNIVERSITY RESEARCH FOUNDATION, priority 2015, published 2018)

What was measured:
Type in all cases: cell-based, human
hiPSCs (SES8) = assay: Cell chip cyclic voltammetry (ipc) and cell number of hiPSCs after YM155 treatment; settings: 24 h after dose-dependent YM155 treatment (FIG. 6A)
Protocol: (§1) hESCs (H9; Wicell Research Institute) and hiPSCs (SES8; (32)) were cultured in mTeSR1 medium (StemCell Technologies) under feeder-free conditions. hASMCs and i-dSMCs were cultured in smooth muscle cell-specific medium, SMCM (ScienCell Research Laboratories), and hDFs were cultured in DMEM medium (Gibco) supplemented with 10% FBS and 0.1% gentamycin. Alkaline phosphatase staining was performed according to the direction included in the Alkaline Phosphatase Kit (Sigma).
(§2) Cyclic voltammetry (CV) method was carried out using a CHIe660C Potentiostat (CH Instruments, Austin, Tex., USA). A fabricated chip, based on an Au electrode as a working electrode, an Ag/AgCl (1M KCl) as a reference electrode, and a Pt wire as a counter electrode was used. For the electrochemical measurement, cells were washed with PBS (0.01 M, PH 7.4). […] All measurements were replicated at least three times, and the cell number was calculated following detection.
(§3) The present inventors reported two kinds of small molecules for inducing the selective apoptosis of undifferentiated hPSCs in previous studies (33). […] Label-free cell chip-based quantification of residual undifferentiated hPSCs may be applied at the end stage, which is critical to determine whether any additional treatment of undifferentiated cells is required in order to ensure safety of tumor-free cell therapy. […]

undifferentiated hPSCs = assay: Detection of specific cathodic peak potential (Epc) of hPSCs after YM-155 treatment; settings: after YM-155 treatment to ablate undifferentiated hPSCs
Protocol: (§4) Cyclic voltammetry (CV) method was carried out using a CHIe660C Potentiostat (CH Instruments, Austin, Tex., USA). A fabricated chip, based on an Au electrode as a working electrode, an Ag/AgCl (1M KCl) as a reference electrode, and a Pt wire as a counter electrode was used. For the electrochemical measurement, cells were washed with PBS (0.01 M, PH 7.4). CV detection was performed between −0.2 V and 0.6 V at 0.1 V/s in mTeSR1 (StemCell Technologies, #05850). All measurements were replicated at least three times, and the cell number was calculated following detection.

hESCs (H9) = assay: Cell chip cyclic voltammetry (ipc) of hESCs after YM155 treatment; settings: 24 h after dose-dependent YM155 treatment (FIG. 6B)
Protocol: as §1, §2, §3

[1] = tested on: SSEA3-positive vs SSEA3-negative populations of hESC mixed culture; assay: Active caspase-3 apoptosis FACS in mixed culture of hESCs and differentiated cells derived therefrom; settings: 40 nM, mixed culture of hESCs and differentiated cells derived therefrom (FIG. 10)
From the text: Cells were stained with respective fluorescent-labeled antibodies and analyzed using FACSCalibur (BD Biosciences). The following antibodies were used: Oct4 (Abcam), FITC Rat Anti-SSEA3 and PE Mouse Anti-Human TRA-1-60 (BD Pharminogen). For apoptosis assays, cells were stained using the PE Annexin V Apoptosis Detection Kit and the PE Active Caspase-3 Apoptosis Kit (BD Pharminogen) according to the manufacturer's direction.
(§5) The present inventors reported two kinds of small molecules for inducing the selective apoptosis of undifferentiated hPSCs in previous studies (33). Therefore, it was predicted that, due to the induction of apoptosis by YM-155, treatment with YM-155 would decrease the number of hPSCs and thereby lower the ipc. […] Label-free cell chip-based quantification of residual undifferentiated hPSCs may be applied at the end stage, which is critical to determine whether any additional treatment of undifferentiated cells is required in order to ensure safety of tumor-free cell therapy. To mimic this situation, hiPSCs were co-cultured with hASMCs. After the co-culture in the cell chip, hiPSCs still maintained the specific colony morphology of hPSCs (FIG. 6C, left panel, black dotted line), but after 24 h of YM155 treatment, there was a typical colony morphology in hiPSCs but not in hASMCs (FIG. 6C, right panel, red dotted line).

[2] = tested on: hiPSCs co-cultured with hASMCs; assay: Cell chip ipc and colony morphology in mixed culture of hiPSCs and hASMCs after YM155 treatment
Protocol: as §4, §5

Structure (SMILES): COCCn1c2c([n+](Cc3cnccn3)c1C)C(=O)c1ccccc1C2=O [YM-155]
- cathodic peak current (ipc) (hiPSCs (SES8)): markedly reduced
- number of cells (hiPSCs (SES8)): markedly reduced
- specific Epc of hPSCs (undifferentiated hPSCs): completely disappeared
- cathodic peak current (ipc) (hESCs (H9)): markedly reduced
- apoptosis by active caspase-3 [1]: shown in only SSEA3-positive populations, not in SSEA3-negative populations
- apoptosis by active caspase-3 ([1]; listed as YM-55): shown in only the SSEA3+(positive) population, but not in SSEA3-(negative) population
- ipc level upon co-culture of hiPSCs and hASMCs ([2]; 40 nM YM155, compared with equal number of untreated hASMCs): as low as that of hASMCs
- hiPSC colony morphology on the cell chip ([2]; 24 hour after treatment with 30 nM YM155, mixed culture of hiPSCs and hASMCs (FIG. 6C)): altered morphology of hiPSC colony
- ipc upon co-culture of hiPSCs and hASMCs ([2]; mixed culture, 24 hours after treatment, different doses (FIG. 6D)): gradually decreased in a dose-dependent manner
